Where “and” joins values, the source holds several entries; their conditions need not be identical. Identical values can stand only once.
What follows are compounds tested against T1, human GPR119 (Homo sapiens, UniProt Q8TDV5) (assay: GPR119 radioligand binding assay ([3H]Cmpd A, membranes of HEK 293FT cells over-expressing hGPR119)). Details: competition with 3H-Cmpd A; Ki from IC50 by Cheng-Prusoff; one line per run.
T1 construct: host or cells: HEK293-CRE beta-lactamase cells
T1 sequence (Q8TDV5 1-335): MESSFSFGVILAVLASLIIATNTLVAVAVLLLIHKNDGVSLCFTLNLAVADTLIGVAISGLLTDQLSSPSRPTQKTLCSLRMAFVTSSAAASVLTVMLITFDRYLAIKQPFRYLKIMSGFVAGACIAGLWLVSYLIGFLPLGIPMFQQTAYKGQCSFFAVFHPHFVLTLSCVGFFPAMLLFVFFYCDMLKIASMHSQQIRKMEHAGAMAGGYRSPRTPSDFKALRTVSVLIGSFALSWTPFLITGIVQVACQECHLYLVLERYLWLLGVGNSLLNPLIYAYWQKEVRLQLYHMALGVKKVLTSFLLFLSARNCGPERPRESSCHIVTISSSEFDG
Method: HEK 293FT cells (Invitrogen, Carlsbad, Calif.) were grown in a shake flask in 293Freestyle medium (Invitrogen) supplemented with 50 microg/mL neomycin and 10 mM HEPES (37 C, 8% carbon dioxide, shaking). The cells were centrifuged gently (approximately 500×g, 10 minutes) and the pellet resuspended in a mixture of Dulbecco's PBS(minus Mg++/−Ca++) supplemented with 18% fetal bovine serum (Sigma Aldrich) and P1 virus such that the multiplicity of infection (MOI) was 10 and the final cell density was 1.3×10^6/ml (total volume 2.5 liters). The cells were transferred to a 5 liter Wave Bioreactor Wavebag (Wave Technologies, MA) and incubated for 4 hours at 27 degrees Celsius (17 rocks/min, 7 degrees platform angle); at the end of the incubation period, an equal volume (2.5 liters) of 293Freestyle medium supplemented with 30 mM sodium butyrate (Sigma Aldrich) was added (final concentration=15 mM), and the cells were grown for 20 hours (37 degrees Celsius, 8% CO2 [0.2 liters/min}, 25 rocks/minute, 7 degrees platform angle). Cells were harvested via centrifugation (3,000×g, 10 minutes), washed once on DPBS (minus Ca++/Mg++), resuspended in 0.25M sucrose, 25 mM HEPES, 0.5 mM EDTA, pH 7.4 and frozen at −80 degrees Celsius.
The frozen cells were thawed on ice and centrifuged at 700×g (1400 rpm) for 10 minutes at 4 degrees Celsius. The cell pellet was resuspended in 20 ml phosphate-buffered saline, and centrifuged at 1400 rpm for 10 minutes. The cell pellet was then resuspended in homogenization buffer (10 mM HEPES (Gibco #15630), pH 7.5, 1 mM EDTA (BioSolutions, #BIO260-15), 1 mM EGTA (Sigma, #E-4378), 0.01 mg/ml benzamidine (Sigma #B 6506), 0.01 mg/ml bacitracin (Sigma #B 0125), 0.005 mg/ml leupeptin (Sigma #L 8511), 0.005 mg/ml aprotinin (Sigma #A 1153)) and incubated on ice for 10 minutes. Cells were then lysed with 15 gentle strokes of a tight-fitting glass Dounce homogenizer. The homogenate was centrifuged at 1000×g (2200 rpm) for 10 minutes at 4 degrees Celsius. The supernatant was transferred into fresh centrifuge tubes on ice. The cell pellet was resuspended in homogenization buffer, and centrifuged again at 1000×g (2200 rpm) for 10 minutes at 4 degrees Celsius after which the supernatant was removed and the pellet resuspended in homogenization buffer. This process was repeated a third time, after which the supernatants were combined, Benzonase (Novagen #71206) and MgCl2 (Fluka #63020) were added to final concentrations of 1 U/ml and 6 mM, respectively, and incubated on ice for one hour. The solution was then centrifuged at 25,000×g (15000 rpm) for 20 minutes at 4 degrees Celsius, the supernatant was discarded, and the pellet was resuspended in fresh homogenization buffer (minus Benzonase and MgCl2). After repeating the 25,000×g centrifugation step, the final membrane pellet was resuspended in homogenization buffer and frozen at −80 degrees Celsius. The protein concentration was determined using the Pierce BCA protein assay kit (Pierce reagents A #23223 and B #23224).
Test compounds were serially diluted in 100% DMSO (J. T. Baker #922401). 2 microL of each dilution was added to appropriate wells of a 96-well plate (each concentration in triplicate). Unlabeled Cmpd A, at a final concentration of 10 microM, was used to determine non-specific binding.
^3H-Cmpd A was diluted in binding buffer (50 mM Tris-HCl, pH 7.5, (Sigma #T7443), 10 mM MgCl2 (Fluka 63020), 1 mM EDTA (BioSolutions #BIO260-15), 0.15% bovine serum albumin (Sigma #A7511), 0.01 mg/mL benzamidine (Sigma #B 6506), 0.01 mg/mL bacitracin (Sigma #B 0125), 0.005 mg/mL leupeptin (Sigma #L 8511), 0.005 mg/mL aprotinin (Sigma #A 1153)) to a concentration of 60 nM, and 100 microL added to all wells of 96-well plate (Nalge Nunc #267245).
Membranes expressing GPR119 were thawed and diluted to a final concentration of 20 μg/100 microL per well in Binding Buffer, and 100 microL of diluted membranes were added to each well of 96-well plate. […]

Structure (SMILES) | Ki
Cc1c(O[C@H]2CCN(C(=O)OC(C)(C)C)C[C@H]2F)ncnc1N1Cc2cnn(C)c2C1 (racemic) [Example 6, tert-Butyl (3,4-cis)-3-fluoro-4-{[5-methyl-6-(1-methyl-4,6-dihydropyrrolo[3,4-c]pyrazol-5(1H)-yl)pyrimidin-4-yl]oxy}piperidine-1-carboxylate (racemic)] | 36 nM
Cc1c(O[C@H]2CCN(C(=O)OC(C)(C)C)C[C@@H]2F)ncnc1N1Cc2cnn(C)c2C1 (racemic) [Example 8, tert-Butyl (3,4-trans)-3-fluoro-4-{[5-methyl-6-(1-methyl-4,6-dihydropyrrolo[3,4-c]pyrazol-5(1H)-yl)pyrimidin-4-yl]oxy}piperidine-1-carboxylate (racemic)] | 130 nM
Cc1c(O[C@H]2[C@@H]3COC[C@H]2CN(C(=O)OC(C)(C)C)C3)ncnc1N1Cc2cnn(C)c2C1 [Example 9, tert-Butyl (9-anti)-9-{[5-methyl-6-(1-methyl-4,6-dihydropyrrolo[3,4-c]pyrazol-5(1H)-yl)pyrimidin-4-yl]oxy}-3-oxa-7-azabicyclo[3.3.1]nonane-7-carboxylate] | 51 nM
CC(C)OC(=O)N1CCC(Oc2ncnc(N3Cc4cnn(C)c4C3)c2C#N)CC1 [Example 3, Isopropyyl 4-{[5-cyano-6-(1-methyl-4,6-dihydropyrrolo[3,4-c]pyrazol-5(1H)-yl)pyrimidin-4-yl]oxy}piperidine-1-carboxylate] | 233 nM
Cc1c(O[C@H]2CCN(C(=O)OC3(C)CC3)C[C@H]2F)ncnc1N1Cc2cnn(C)c2C1 (racemic) [Example 7, 1-Methylcyclopropyyl (3,4-cis)-3-fluoro-4-{[5-methyl-6-(1-methyl-4,6-dihydropyrrolo[3,4-c]pyrazol-5(1H)-yl)pyrimidin-4-yl]oxy}piperidine-1-carboxylate (racemic)] | 3.4 nM and 11 nM
Cc1c(OC2CCN(C(=O)OC(C)C)CC2)ncnc1N1Cc2cnn(C)c2C1 [Example 2, Isopropyyl 4-{[5-methyl-6-(1-methyl-4,6-dihydropyrrolo[3,4-c]pyrazol-5(1H)-yl)pyrimidin-4-yl]oxy}piperidine-1-carboxylate] | 502 nM and 229 nM and 171 nM

Source: US20130072427A1, “GPR 119 MODULATORS” (Pfizer Inc., priority 2009, published 2013)
